SMILES	melting point [°C]
COC(=O)c1cc(N2CCOCC2)nc(Cl)n1	135 to 138
CNC(=O)Oc1ccccc1	84 to 85
CCC(=O)Cc1cc(OC2CCCC2)ccc1NC(=O)OC(C)(C)C	71 to 73
OC(CN1CC=C(c2ccccc2)CC1)c1ccc(Cc2ccc(Cl)cc2)cc1 (stereo unspecified)	135 to 137
C#CCN1CCN(C2Cc3ccc(OC)cc3Sc3ccc(Cl)cc32)CC1 (stereo unspecified)	177 to 180
CCOC(=O)c1cc(=O)c2[nH]ncc2[nH]1	287 to 292
ClCc1ccc(Oc2ccc3ccc(Oc4ccc(CCl)cc4)cc3c2)cc1	95 to 97
COc1ccccc1C1(O)C(O)CC(c2ccccc2)(c2ccccc2)C2CN(C(=O)Cc3ccccc3O)CC21 (stereo unspecified)	188 to 190
CCC(=O)NCC=C1CCc2ccc3ncoc3c21	148 to 150
C#Cc1cnn(-c2ccnc3cc(Cl)ccc23)c1	174 to 175
COc1cc(-c2ccco2)c2oc(-c3ccc(OC)c(F)c3)nc2c1	155
CCN(CC)CCCN1C(=S)c2cccc3cccc1c23	128
O=C(CCc1ccccc1)Nc1ccc(C(=O)NN=C2C(=O)Nc3ccc(Br)cc32)cc1	326
COc1ccc(CCNCC(O)c2ccccc2)cc1Cl (stereo unspecified)	95 to 96
COc1cc(C=CC2=NN=C(C)Cc3cc(OC)c(OC)cc32)ccc1O	192 to 193
CC(C)C1CC1(O)C(=O)O (stereo unspecified)	135 to 138
Clc1cccc(Cl)c1NCC1CC1	149 to 158
COc1ccnc(CCc2nc3cc(-c4ccc(S(=O)(=O)N5CCN(Cc6ccccc6)CC5)cc4)cnc3[nH]2)c1	160 to 162
CC1COCc2nc3c(N)nc4cc(C=CC(=O)N5CCOCC5)ccc4c3n21 (stereo unspecified)	> 250
CCC(=O)N1CCC(NC(=O)Nc2cccc(C(F)(F)F)c2)CC1	153 to 154
COc1ccc(C(=O)c2c(F)cccc2F)cc1OC	100 to 101
COc1cc(C)c(C(=O)c2c(Cl)cccc2Cl)cc1Br	159

SMILES	melting point [°C]
Cc1ccc(C2CCN(C(=O)Nc3ccc4cc(CN5CCCCC5)ccc4c3)CC2)cc1	227 to 228
CC(C)(C)OC(=O)C1CCCN1C(=O)NN (stereo unspecified)	83 to 84
CCCc1nc2cnc3cccnc3c2n1CC1(O)CCOC1 (stereo unspecified)	151 to 152
O=[N+]([O-])c1cc(CS)cc(O)c1O	179 to 185
Cc1ccc(S(=O)(=O)N2CC[C@@H](C)[C@@H]2c2ccc(F)cc2)cc1 (racemic)	112
O=CNNc1ccc(NC(=S)NCc2ccccc2)cc1	152 to 154
COC(=O)Cc1ccc(OS(=O)(=O)C(F)(F)F)c(NC(C)=O)c1	68.5 to 70
CC(=O)C(=CNc1ccc(C2=NNC(=O)CC2)cc1)C(C)=O	218 to 222
O=S(=O)(Nc1ccc(I)cc1)c1ccccc1	141 to 143
CS(=O)(=O)CC(=O)NCCn1ccc2ncnc(Nc3ccc(Oc4cccc(Cl)c4)c(Cl)c3)c21	206 to 207
COc1cc2c(cc1Nc1ncc(Cl)c(N[C@H]3[C@@H](C(N)=O)[C@@H]4C=C[C@H]3C4)n1)NCCN(CC1CC1)C2	149 to 151
O=C(NC(=O)c1ccc2ncccc2c1)NC1CCN(Cc2ccc3ncccc3c2)CC1	202 to 204
N#Cc1cccc(OCc2ccccc2)c1	38 to 40
Oc1ccc(Oc2ccc(C(F)(F)F)cc2Cl)cc1	55 to 56
O=C(Nc1cnc(-n2nc(C(F)(F)F)cc2C2CC2)nc1)c1c(F)cccc1F	280 to 281
CC(C)(C)c1cc(NC(=O)Nc2csc(-c3cccnc3)n2)no1	230 to 232
COc1cc2c(cc1OC)CN(CC(O)c1ccc(NC(=O)c3cccc4c(=O)c5cccc(OC)c5[nH]c34)cc1)CC2 (stereo unspecified)	160 to 165
CC(C)NC1=NS(=O)(=O)c2cc(C(=O)O)ccc2N1	> 310
C[C@H](Cn1ncnn1)n1cnc2cc3c(=O)n(Cc4c[nH]nn4)nnc3cc2c1=O	180 to 182
CC1CN(CC(N)=O)C(=O)N1 (stereo unspecified)	124
Cc1c(Cl)nc(Cl)nc1Cl	67 to 68
CC1=C(C(=O)O)N2C(=O)C(NC(=O)Cc3ccc(CN=[N+]=[N-])cc3)C2SC1 (stereo unspecified)	154 to 155

SMILES	melting point [°C]
Nc1ccc(OC2=CC=CN(Oc3ccc(N)cc3)C2)cc1	152 to 154
CC(C)(C)NS(=O)(=O)c1ccc2c(NS(=O)(=O)N3CCOCC3)cccc2c1O	105 to 110
CCC(=CC(CNC(=O)c1nc[nH]c1C)=NO)C(C)[N+](=O)[O-] (stereo unspecified)	125 to 127
CCOC(=O)COc1cccc2c1CCCC2=O	58 to 60
COCCOCOc1c(Cl)cc(C=O)c(Cl)c1OCOCCOC	50
COc1ccc2c(c1)S(=O)(=O)c1cc(OC(C)=O)c(OC)cc1N2	265 to 268
OC1CSC(Oc2cccc(-c3ncccc3Cl)c2)C(O)C1O (stereo unspecified)	217
COC(=O)C=Cc1ccc(OCCn2c(=O)sc3cc(C(=O)c4ccccc4)ccc32)cc1	144 to 146
CCOC(=O)C(C)(C)c1ccc(Br)c([N+](=O)[O-])c1	42 to 45
Cc1ccc(C(=O)OC2CCN(Cc3cccc([N+](=O)[O-])c3)CC2)cc1	90 to 93
CCN(N)c1cnn(-c2cccc(C(F)(F)F)c2)c(=O)c1	108 to 110
NC=C1C(=O)N(c2cccc(Cl)c2)c2ccccc21	141 to 143
CCCCCCCCCCCCCCCCCCOc1cc(OCc2ccc3ccccc3n2)cc(N(CC(=O)OC)CC(=O)OC)c1	76 to 79
O=C(c1ccc(Cl)cc1)c1c(N2C(=O)c3ccccc3C2=O)sc(-c2ccccc2)c1CBr	160 to 161
Cn1nc(-c2ccc3c(c2)CCN(C2CCC2)CC3)ccc1=O	287 to 288
CC(CC#CC(C)(C)O[Si](C)(C)C(C)(C)C)C1=CCC2C3=CC=C4CC(O[Si](C)(C)C(C)(C)C(C)C)CCC4(C)C3CCC12C (stereo unspecified)	62 to 66
CCc1ccc2c(C=O)c3ccccc3c(C=O)c2c1	99 to 100
O=C(NCC1CCN(CC2(C(=O)O)CCC2)CC1)N1C(=O)C2(CCCC2)c2ccc(F)cc21	150
Cc1cn2c(n1)CN=C(c1ccccc1Cl)c1cc(Cl)ccc1-2	170
COC(=O)CC1CC(c2ccc(C(=N)NC(=O)OC(C)(C)C)cn2)=NO1 (stereo unspecified)	143
CCc1nn2c(-c3ccc(Cl)cc3Cl)nc(C)nc2c1N(CC)CC	98 to 99

Now from value to compound:

melting point [°C]	SMILES
236 to 237	CCc1cn(C2CC(O)C(CNC(=O)Cc3ccccc3Br)O2)c(=O)nc1N (stereo unspecified)
120 to 122	CC(C)(C)OC(=O)N1CCC(c2ccc(N3C[C@H](CO)OC3=O)cc2F)CC1
136	COc1ccc(S(=O)(=O)N2C(=O)C(c3ccccc3OC)(N3CCC[C@H]3C(=O)OC(C)(C)C)c3cc(Cl)ccc32)c(OC)c1 (stereo partly specified)
217 to 220	N#Cc1cccc(C(CC(=O)O)N2C(=O)c3ccccc3C2=O)c1 (stereo unspecified)
253	N#Cc1cccc(C2=Nc3cc(N4CCC5(CC4)OCCO5)c(-c4ccccc4F)cc3NC(=O)C2)c1
229 to 231	COc1cn(-c2ccc(C3=CCOCC3)cc2F)nc(-c2ccnn2-c2ccccc2)c1=O
44 to 45	CCOC(=O)c1c(CN(CC)CC)nc2n(Cc3ccccc3)c3ccccc3n12
67 to 70	Cc1c(-c2ccccc2)c(N2CC[C@@H](N(C)C)C2)c2oc(C(=O)N(C)C)nc2c1C#N
81 to 83	C[C@H]1[C@H](O[Si](C)(C)C(C)(C)C)[C@H](O)C(S(=O)(=O)c2ccccc2)=C[C@H](C)[C@H]1O[Si](C)(C)C(C)(C)C
113 to 115	Cc1cc(SC2=C(O)CC(CCc3ccc(O)cc3)(C3CCCC3)OC2=O)c(C(C)(C)C)cc1OCCO (stereo unspecified)
85 to 88	Cc1c(C(=O)c2ccc(F)cc2)c(C)n(C)c1C(=O)c1cccnc1
247 to 248	COc1cc(C=CC(=O)Nc2cnc3ccccc3c2-c2ccccc2)cc(OC)c1OC(C)=O
116 to 118	COC(=O)CCc1cc(-n2nc3ccc(Br)cc3n2)c(O)c(C(C)(C)C)c1
169 to 170	COc1cc2c(cc1C(F)(F)F)N(C(=O)Nc1ccc(CN(C)C)cc1)CC2
140 to 144	CCCCc1nc(Cl)c(C(=O)O)n1Cc1ccc2oc(-c3ccccc3-c3nnn[nH]3)c(OC)c2c1
205 to 206	COc1cc2c3ccc(OC)c(OC)c3n(S(=O)(=O)c3ccccc3)c2cc1OC

melting point [°C]	SMILES
106 to 108	CCN(c1ccc(C(=O)c2ccccc2)cc1N)C1CCCCC1
152 to 154	Cn1cc(-c2cccc(C(F)(F)F)c2)c(=O)c(-c2ccccc2F)c1
281 to 282	Cc1cc(-c2cnn3c(O)ncnc23)ccc1S(C)=O (stereo unspecified)
257 to 258	CC1CCC(=NNc2ccc([N+](=O)[O-])cc2[N+](=O)[O-])c2ncc(C(=O)O)c(=O)n21 (stereo unspecified)
194 to 196	COc1ccc(-c2cc(Cl)cc3c2OC(C(F)(F)F)C(C(=O)O)=C3)cc1 (stereo unspecified)
193 to 194	Cc1sc2nc(-c3ccccc3)c(-c3ccc(S(C)(=O)=O)cc3)n2c1C
203 to 205	C#CCN(Cc1ccc2nc(C)[nH]c(=O)c2c1)c1ccc(C(=O)NCC(OC(C)=O)c2ccccc2)cc1 (stereo unspecified)
224 to 226	O=C1OCc2c1cc1ccc3c(c1c2-c1ccc2ccccc2c1)OCO3
148 to 150	O=C1Nc2ccccc2N(C(=O)N2CCCC(CCNCC3CCCC3)C2)c2ncccc21 (stereo unspecified)
191	COc1ccc(S(=O)(=O)N(Cc2cccnc2)c2c(C)cc(-c3cccs3)cc2C(=O)O)cc1
256 to 257	Cc1cc(C2=Nn3cnnc3SC2c2ccc(F)cc2)nc2c1OCC(=O)N2 (stereo unspecified)
138 to 139	O=C(NCc1ccccc1)OCCc1noc(-c2ccc(CN3CCCCCC3)s2)n1
169 to 171	Cc1[nH]c2ccc(F)cc2c1C(=O)Nc1ccc(OCC(C)(C)C)c(C#N)c1
187 to 188	CCOc1ccc2nc(N)c3nc4n(c3c2c1)C(C)COC4 (stereo unspecified)
65 to 67	CCOC(=O)C1=C(C)NC(SCc2ccc(OC)cc2)=NC1c1cccc(C)c1 (stereo unspecified)

From a melting point compilation (Tetko et al.; mined from patent text by program, amines drawn as free bases though some values may be those of a salt)
